From US4285942A, “Cyclododecanone oximes” (Egyt Gyogyszervegyeszeti Gyar, priority 1978, dated 1981)

Assays:
isolated rat ileum = assay: Spasmolytic effect on smooth muscle, isolated rat ileum (method of Brock), papaverine as reference; details: relative to papaverine
Method: The spasmolytic effect on smooth muscle was determined on isolated rat ileum according to the method of Brock et al. [H. Brock, J. Ceks, D. Lorenz: Arch. Exper. Path. u. Pharmacol. 215, 492/1952/] by using papaverine as the reference substance. In order to characterize the efficiency of the individual compounds their relative effect with respect to papaverine are enumerated in Table 2 below.

[1] = test system: ischiadic nerve (N. ischiadieus); assay: Local anaesthetizing effect on the ischiadic nerve of rats (method of Truant), Lidocaine as reference; type: in vivo; details: for Relative efficiency: local anaesthesia, relative to Lidocaine
Method: The local anaesthetizing effect was investigated on the ischiadic nerve (N. ischiadieus) of rats by the method of Truant [A. P. Truant, d'Amato cited in A. P. Truant, S. Wiedling: Acta Chirurg. Scand. 116, 351 (1958)], by using Lidocaine as the reference substance. The number of animals showing the characteristic motoric paralysis and the duration of the effect were recorded. The relative efficiency with respect to Lidocaine and the duration of the effect observed on applying a 0.25% and 0.5% concentration are presented in Table 3.

[2] = Nicotine-lethality inhibiting effect in mice, oral (method of Stone); type: in vivo; details: mouse, in vivo, LD50 and ED50 in mice, read-out: Therapeutic index
Method: (§1) The nicotine-lethality inhibiting effect was determined on mice by the method of Stone [C. A. Stone et al.: Arch. Intern.

nicotine-lethality = assay: as above; type: in vivo; details: Mus musculus, nicotine-lethality inhibition, mice, groups of ten animals
Method: as §1

in vivo = details: mouse, mice, oral

SMILES | Relative efficiency (isolated rat ileum) | Duration of effect ([1]; 0.25% concentration) [min] | Duration of effect ([1]; 0.5% concentration) [min] | Relative efficiency [1] | selectivity ratio [2] | ED50 (nicotine-lethality) [mg/kg] | LD50 (in vivo) [mg/kg]
CCN(CC)CCCON=C1CCCCCCCCCCC1 [Example 10, 1-(Diethylamino-propoxyimino)cyclododecane] | 2.9 | 76 | 104 | 2.00 |  |  | 
CCN(CC)CC(=O)Nc1c(C)cccc1C [Lidocaine, reference compound] |  | 24 | 28 | 1.0 |  |  | 
CN(C)CCON=C1CCCCCCCCCCC1 [Example 2, 1-(Dimethylamino-ethoxyimino)cyclododecane] |  | 23 | 57 | 0.67 | 27.9 | 28 | 780
OC(CCN1CCCCC1)(c1ccccc1)C1CCCCC1 (stereo not shown) [Artane, 1-cyclohexyl-1-phenyl-3-piperidino-propane-1-ol, reference compound] |  |  |  |  |  | 40 | 
c1ccc(CN2CCN(CCCON=C3CCCCCCCCCCC3)CC2)cc1 [Example 6, 1-(N-Benzylpiperazinyl-propoxyimino)cyclododecane] | 0.9 | 60 | 134 | 0.52 | 5 | 180 | 900
CC(C)N(CCCON=C1CCCCCCCCCCC1)C(C)C [Example 12, 1-(Diisopropylamino-propoxyimino)cyclododecane] |  | 77 | 240 | 1.68 | 5 | 130 | 650
CC(C)N(CCON=C1CCCCCCCCCCC1)C(C)C [Example 5, 1-(Diisopropylamino-ethoxyimino)cyclododecane] |  | 31 | 60 | 0.71 | 80 | 10 | 800
CN1CCN(CCCON=C2CCCCCCCCCCC2)CC1 [Example 7, 1-(N-methylpiperazinyl-propoxyimino)cyclododecane] |  |  |  |  | 16.2 | 68 | 1100
CC(CON=C1CCCCCCCCCCC1)CN(C)C (racemic) [Example 4, D,L-1-(3'-Dimethylamino-2'-methylpropoxyimino)cyclododecane] | 4.1 | 32 | 105 | 0.63 | 14.8 | 46 | 680
COc1ccc(Cc2nccc3cc(OC)c(OC)cc23)cc1OC [Papaverine, reference compound] | 1.0 |  |  |  |  |  | 
CN(C)CCCON=C1CCCCCCCCCCC1 [Example 1, 1-(Dimethylamino-propoxyimino)cyclododecane] | 1.4 | 45 | 95 | 0.77 | 14.4 | 39 | 560
CCN(CC)CC(C)CON=C1CCCCCCCCCCC1 (stereo not shown) [Example 11, 1-(3'-Diethylamino-2'-methyl-propoxyimino)cyclododecane] | 2.6 | 151 | 240 | 1.86 | 5 | 80 | 400
